From US20260035339A1, “TETRAHYDRONAPHTHALENE DERIVATIVE” (ATRANSEN PHARMA LTD., priority 2022, published 2026)

How the values were obtained:
human LAT2 = molecular target: T1, human LAT2 (Homo sapiens, UniProt Q9UHI5); assay: [14C]L-alanine uptake inhibition test using human-LAT2 stably expressing HEK293 cell line; type: cell-based
T1 construct: having full-length cDNA of human LAT1 or LAT2 inserted under a promoter of CMV; expressed in transfected cells
T1 sequence (Q9UHI5 1-535): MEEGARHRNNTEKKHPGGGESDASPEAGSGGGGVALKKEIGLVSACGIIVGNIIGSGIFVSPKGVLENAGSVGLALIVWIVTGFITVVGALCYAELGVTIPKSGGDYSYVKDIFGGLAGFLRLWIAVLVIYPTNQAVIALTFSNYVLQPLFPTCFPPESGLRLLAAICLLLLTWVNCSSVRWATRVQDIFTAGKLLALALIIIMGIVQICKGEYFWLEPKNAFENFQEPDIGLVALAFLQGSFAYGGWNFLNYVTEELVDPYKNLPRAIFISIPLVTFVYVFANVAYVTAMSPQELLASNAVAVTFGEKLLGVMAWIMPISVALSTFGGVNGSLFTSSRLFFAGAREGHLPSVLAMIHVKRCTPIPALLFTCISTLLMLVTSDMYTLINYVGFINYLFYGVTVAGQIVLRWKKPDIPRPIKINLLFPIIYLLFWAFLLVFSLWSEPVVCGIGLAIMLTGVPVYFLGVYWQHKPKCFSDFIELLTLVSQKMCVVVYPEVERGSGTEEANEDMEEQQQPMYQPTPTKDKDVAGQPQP
T1 sequence (P08195 1-529 partner): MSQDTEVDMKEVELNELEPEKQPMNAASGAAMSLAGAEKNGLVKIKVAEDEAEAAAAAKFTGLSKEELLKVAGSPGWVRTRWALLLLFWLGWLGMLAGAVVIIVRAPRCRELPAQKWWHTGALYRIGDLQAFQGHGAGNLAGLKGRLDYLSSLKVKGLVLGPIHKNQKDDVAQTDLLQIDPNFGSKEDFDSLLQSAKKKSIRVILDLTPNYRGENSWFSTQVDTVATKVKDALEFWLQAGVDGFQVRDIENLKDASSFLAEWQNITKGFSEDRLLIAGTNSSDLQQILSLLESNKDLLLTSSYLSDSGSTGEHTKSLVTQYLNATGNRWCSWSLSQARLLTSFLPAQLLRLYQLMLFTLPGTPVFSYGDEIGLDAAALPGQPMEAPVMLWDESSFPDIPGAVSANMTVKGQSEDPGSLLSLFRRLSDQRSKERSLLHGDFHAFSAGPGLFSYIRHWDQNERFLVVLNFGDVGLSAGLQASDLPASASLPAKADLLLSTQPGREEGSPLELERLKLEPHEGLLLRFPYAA
Source text: HEK293 cells stably expressing human LAT1 and LAT2 were produced, respectively.
A shuttle vector DNA (LAT1: pcDNA3.1(+) -hLAT1, LAT2: pcDNA3.1(+) -hLAT2; expression vector pcDNA3.1 (+) was produced by Invitrogen Corp.) having ampicillin and neomycin resistance markers and having full-length cDNA of human LAT1 or LAT2 inserted under a promoter of CMV (cytomegalovirus) was constructed. This vector was transfected into the HEK293 cells by a method using Lipofectamine (registered trademark) 2000 (Invitrogen Corp.) according to the manufacturer's instructions. […]
[^14C]L-alanine uptake inhibition using the compound of Example 1-1 was performed using the human-LAT2 stably expressing HEK293 cell line. In the same manner as in the [^14C]L-leucine uptake inhibition experiment in the human-LAT1 stably expressing HEK293 cell line, the human-LAT2 stably expressing HEK293 cell line was seeded in a 24-well plate at 1×10^5 Cell/Well, and after 48 hours, 1 μM of [^14C]L-alanine was taken up in Na^+-free HBSS in the presence of the compound (0.1, 1.0, 10, 0 μM in each case), which is a racemic form, of Example 1-1 for 1 minute, then the uptake amount of [^14C]L-alanine and the protein amount of the cell lysate were measured, and the uptake amount of [^14C]L-alanine per 1 mg of protein in the cell per minute was determined.

[1] = tested on: Human breast cancer cells MCF7; assay: BNCT-enhancing effect by L-BPA confinement using cultured cells (colony formation after neutron irradiation); type: cell-based; details: MCF7 loaded with 100 μM L-[10B]BPA, then 10 μM compound for 60 minutes; neutron rays 5 MW for 4 minutes
Protocol: Human breast cancer cells MCF7 were plate-cultured in an RPMI medium for 48 hours, then replaced with an RPMI medium containing 100 μM of L-[10B]BPA, and cultured for 15 minutes to allow the L-[10B]BPA to be taken up in the cells. After washing with HBSS, the cells were cultured in an RPMI medium for 60 minutes, and after further washing with HBSS, the cells were peeled off and stored in HBSS at room temperature for 1.5 hours ((−) in FIG. 3A). L-BPA was taken up in the cells, washed with HBSS and then cultured in an RPMI medium containing the compound of Example 1-1 (10 μM) obtained in the present invention for 60 minutes, and after further washing with HBSS, the cells were peeled off and stored in HBSS at room temperature for 1.5 hours ((+) in FIG. 3A). The cells were cultured in an RPMI medium containing no L-[10B]BPA for 15 minutes, and after washing with HBSS, the cells were peeled off and stored in HBSS at room temperature for 1.5 hours ((No BPA Hot control) in FIG. 3A). These three cell samples were irradiated with neutron rays (5 MW for 4 minutes). After irradiation, in order to measure viable cells, the cells were plate-cultured and the number of colonies generated after 2 weeks was measured. The number of viable cells was evaluated as surviving fraction (%) (FIG. 3A).

inhibitory action on LAT2 alanine uptake compared with LAT1 leucine uptake inhibition (human LAT2; LAT2 versus LAT1 stably expressing HEK293 cell line): weaker inhibitory action
IC50 (human LAT2; racemic form, 1 μM [14C]L-alanine, 1 minute, Na+-free HBSS, read-out: 50% suppression concentration, [14C]L-alanine uptake): ~1 µM
SMILES: NC1(C(=O)O)CCc2ccc(Oc3ccc4ccccc4c3)cc2C1 (stereo not drawn) [Example 1-1, 2-carboxy-7-(naphthalene-2-yloxy)-1,2,3,4-tetrahydronaphthalene-2-aminium chloride]
BNCT-enhancing effect (surviving fraction after neutron irradiation) [1]: large BNCT-enhancing effect
